# Test results from ChEMBL document CHEMBL1201862, “PubChem BioAssay data set” (2004).
# Calls of active or inactive are those of the source.
# Assays:
# H9c2 = assay: cells; type: functional, cell-based; conditions: Rattus norvegicus, H9c2, Myocardium;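 further: confirmatory concentration-response retest of ultra-high-throughput screening hits for modulation of myocardial damage; cell death induced by hydrogen peroxide oxidative stress; compound pretreatment for 60 min then peroxide exposure for 2 h; potency is for protecting the cells against peroxide damage rather than for killing them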
# Cytochrome P450 2D6 = Cytochrome P450 2D6 (Homo sapiens, UniProt P10635);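 further: CYP2D6 member of a cytochrome P450 panel assay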
# Protein RecA = biological target: T1, Protein RecA (Mycobacterium tuberculosis, UniProt P9WHJ3); assay: Fluorescence Cell-Free Homogeneous Dose Retest to Identify Inhibitors of RecA-Intein Splicing Activity. [Related pubchem assays (depositor defined):AID2097, AID2223, AID489010, AID492950]; type: functional
# T1 sequence (P9WHJ3 whole entry): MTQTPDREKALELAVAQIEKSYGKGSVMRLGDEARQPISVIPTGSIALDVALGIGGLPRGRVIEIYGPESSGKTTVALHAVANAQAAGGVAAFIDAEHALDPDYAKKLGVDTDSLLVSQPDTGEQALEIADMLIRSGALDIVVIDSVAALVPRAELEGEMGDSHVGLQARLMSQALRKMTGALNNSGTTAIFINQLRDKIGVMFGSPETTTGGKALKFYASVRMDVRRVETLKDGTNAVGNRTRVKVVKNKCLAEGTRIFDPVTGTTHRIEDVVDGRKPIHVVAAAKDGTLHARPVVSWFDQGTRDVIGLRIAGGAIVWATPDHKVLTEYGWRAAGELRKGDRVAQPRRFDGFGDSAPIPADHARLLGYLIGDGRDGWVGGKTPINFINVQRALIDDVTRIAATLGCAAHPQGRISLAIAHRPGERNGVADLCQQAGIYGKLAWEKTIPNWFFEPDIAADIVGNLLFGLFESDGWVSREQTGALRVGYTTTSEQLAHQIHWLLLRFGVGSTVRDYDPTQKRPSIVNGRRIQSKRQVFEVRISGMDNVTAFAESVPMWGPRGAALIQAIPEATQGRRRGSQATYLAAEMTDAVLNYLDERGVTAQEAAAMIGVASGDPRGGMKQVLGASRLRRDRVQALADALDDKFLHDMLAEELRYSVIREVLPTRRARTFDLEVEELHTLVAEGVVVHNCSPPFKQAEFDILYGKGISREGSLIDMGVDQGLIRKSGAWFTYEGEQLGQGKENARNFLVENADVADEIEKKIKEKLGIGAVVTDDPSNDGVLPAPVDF
# [1] = biological target: T2, Replicative DNA helicase DnaB (Mycobacterium tuberculosis, UniProt P9WMR3); assay: DnaB intein splicing inhibitors, dose response, biochemical, cell-free fluorescence (AID 449749); type: functional
# T2 sequence (P9WMR3 whole entry): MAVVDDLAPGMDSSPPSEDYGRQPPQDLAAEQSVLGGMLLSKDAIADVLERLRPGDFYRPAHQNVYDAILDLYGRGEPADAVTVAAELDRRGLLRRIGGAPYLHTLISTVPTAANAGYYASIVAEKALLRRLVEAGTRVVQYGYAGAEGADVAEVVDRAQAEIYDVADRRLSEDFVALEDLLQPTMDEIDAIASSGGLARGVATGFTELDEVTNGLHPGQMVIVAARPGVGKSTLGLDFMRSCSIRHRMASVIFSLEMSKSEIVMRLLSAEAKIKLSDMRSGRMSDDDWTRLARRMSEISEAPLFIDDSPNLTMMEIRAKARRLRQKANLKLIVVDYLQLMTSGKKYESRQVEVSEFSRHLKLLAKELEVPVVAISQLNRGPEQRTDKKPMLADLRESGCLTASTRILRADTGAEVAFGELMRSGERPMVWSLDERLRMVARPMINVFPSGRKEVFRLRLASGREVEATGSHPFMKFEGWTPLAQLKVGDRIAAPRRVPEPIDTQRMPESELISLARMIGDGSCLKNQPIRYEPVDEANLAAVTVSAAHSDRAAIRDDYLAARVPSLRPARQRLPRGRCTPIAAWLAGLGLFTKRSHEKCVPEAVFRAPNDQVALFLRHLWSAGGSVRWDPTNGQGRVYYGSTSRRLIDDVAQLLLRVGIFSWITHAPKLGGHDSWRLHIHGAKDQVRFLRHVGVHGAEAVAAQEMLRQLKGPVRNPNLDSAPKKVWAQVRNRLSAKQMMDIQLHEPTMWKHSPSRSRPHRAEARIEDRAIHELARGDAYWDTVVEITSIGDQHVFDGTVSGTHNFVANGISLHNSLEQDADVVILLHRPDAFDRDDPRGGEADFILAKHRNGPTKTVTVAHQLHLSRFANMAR
# [2] = biological target: T3, Polyadenylate-binding protein 1 (Homo sapiens, UniProt P11940); assay: MLLE domain peptide-binding blockers, IC50 – biochemical, fluorescence polarization, FITC-PAM2 peptide, dose response (AID 602259); type: functional; conditions: read-out: IC50_Mean
# [3] = biological target: T3, Polyadenylate-binding protein 1; assay: MLLE binding blockers, Cy5 peptide tracer – biochemical, fluorescence polarization, Cy5-PAM2 peptide, secondary, miRNA deadenylation inhibitor project, dose response (AID 602260); type: functional; conditions: read-out: IC50_Mean
# Cytochrome P450 1A2 = biological target: T4, Cytochrome P450 1A2 (Homo sapiens, UniProt P05177);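 further: PubChem cytochrome P450 panel assay, CYP1A2 panel member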
# T4 sequence (P05177 whole entry): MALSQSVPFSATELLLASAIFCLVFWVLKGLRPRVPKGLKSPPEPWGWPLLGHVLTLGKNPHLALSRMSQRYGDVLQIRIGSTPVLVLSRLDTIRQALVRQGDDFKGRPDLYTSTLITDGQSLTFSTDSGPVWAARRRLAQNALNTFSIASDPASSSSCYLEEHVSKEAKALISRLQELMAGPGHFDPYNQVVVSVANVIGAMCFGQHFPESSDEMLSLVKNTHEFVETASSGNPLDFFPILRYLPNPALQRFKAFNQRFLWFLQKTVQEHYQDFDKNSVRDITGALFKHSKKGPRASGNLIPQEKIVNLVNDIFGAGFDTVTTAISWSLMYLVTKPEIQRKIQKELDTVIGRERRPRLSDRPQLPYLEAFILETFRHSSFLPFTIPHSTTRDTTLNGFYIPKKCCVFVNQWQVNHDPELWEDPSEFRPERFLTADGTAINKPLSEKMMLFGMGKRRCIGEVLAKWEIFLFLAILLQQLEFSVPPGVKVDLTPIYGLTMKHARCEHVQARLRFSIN
# Cytochrome P450 3A4 = Cytochrome P450 3A4 (Homo sapiens, UniProt P08684);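 further: CYP3A4 tested as one member of a cytochrome P450 panel screen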
# Cytochrome P450 2C19 = Cytochrome P450 2C19 (Homo sapiens, UniProt P33261); assay: Cytochrome panel assay with activity outcomes. Panel member name: p450-cyp2c19 Compounds with AC50 equal or less than 10 uM are considered active; type: functional; conditions: read-out: AC50
# Cytochrome P450 2C9 = Cytochrome P450 2C9 (Homo sapiens, UniProt P11712)
# [4] = biological target: T5, Corticotropin-releasing factor receptor 2/Corticotropin-releasing factor-binding protein (Homo sapiens, UniProt P24387+Q13324); assay: activators of CRF receptor 2 with binding protein – uHTS hits, confirmation (AID 602473); type: functional; conditions: read-out: EC50_Mean
# T5 sequence (Q13324 whole entry): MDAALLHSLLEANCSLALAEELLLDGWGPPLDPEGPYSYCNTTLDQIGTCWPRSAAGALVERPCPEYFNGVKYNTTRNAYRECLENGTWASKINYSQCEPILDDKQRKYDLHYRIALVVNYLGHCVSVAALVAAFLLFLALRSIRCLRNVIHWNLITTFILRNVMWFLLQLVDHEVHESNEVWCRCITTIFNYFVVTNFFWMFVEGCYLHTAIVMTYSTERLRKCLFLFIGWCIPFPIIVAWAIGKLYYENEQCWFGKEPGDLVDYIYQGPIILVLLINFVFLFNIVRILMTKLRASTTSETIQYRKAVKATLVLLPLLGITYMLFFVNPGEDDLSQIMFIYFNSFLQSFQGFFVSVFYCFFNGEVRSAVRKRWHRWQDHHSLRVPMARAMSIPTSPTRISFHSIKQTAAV
# T5 sequence (P24387 whole entry): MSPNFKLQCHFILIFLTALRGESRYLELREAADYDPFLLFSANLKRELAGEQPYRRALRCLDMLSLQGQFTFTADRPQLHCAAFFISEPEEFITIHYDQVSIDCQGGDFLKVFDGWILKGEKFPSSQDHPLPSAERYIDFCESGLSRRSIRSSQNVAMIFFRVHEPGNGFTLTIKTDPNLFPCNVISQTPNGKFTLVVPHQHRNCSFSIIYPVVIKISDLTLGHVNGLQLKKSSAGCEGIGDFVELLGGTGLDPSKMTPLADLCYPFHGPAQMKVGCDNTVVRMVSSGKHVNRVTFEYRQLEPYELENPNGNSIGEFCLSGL
# T3 sequence (P11940 whole entry, the tested form may be a part): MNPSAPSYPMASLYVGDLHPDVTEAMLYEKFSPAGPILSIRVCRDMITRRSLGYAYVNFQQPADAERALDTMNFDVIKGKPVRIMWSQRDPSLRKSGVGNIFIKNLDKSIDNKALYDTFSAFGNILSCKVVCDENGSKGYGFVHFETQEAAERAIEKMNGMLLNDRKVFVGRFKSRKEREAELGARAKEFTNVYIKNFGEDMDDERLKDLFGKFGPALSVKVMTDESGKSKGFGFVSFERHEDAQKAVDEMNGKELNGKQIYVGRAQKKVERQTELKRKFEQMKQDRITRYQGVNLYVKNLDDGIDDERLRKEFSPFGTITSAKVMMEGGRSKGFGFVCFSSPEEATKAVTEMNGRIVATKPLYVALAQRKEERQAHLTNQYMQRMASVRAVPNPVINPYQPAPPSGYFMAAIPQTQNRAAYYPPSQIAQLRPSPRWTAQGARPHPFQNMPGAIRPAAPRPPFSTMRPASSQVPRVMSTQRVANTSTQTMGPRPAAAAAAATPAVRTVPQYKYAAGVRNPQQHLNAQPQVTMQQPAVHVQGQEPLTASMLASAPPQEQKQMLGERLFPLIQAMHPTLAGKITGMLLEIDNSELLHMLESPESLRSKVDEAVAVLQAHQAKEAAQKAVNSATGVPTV
# Sequence of Cytochrome P450 3A4 (P08684 whole entry): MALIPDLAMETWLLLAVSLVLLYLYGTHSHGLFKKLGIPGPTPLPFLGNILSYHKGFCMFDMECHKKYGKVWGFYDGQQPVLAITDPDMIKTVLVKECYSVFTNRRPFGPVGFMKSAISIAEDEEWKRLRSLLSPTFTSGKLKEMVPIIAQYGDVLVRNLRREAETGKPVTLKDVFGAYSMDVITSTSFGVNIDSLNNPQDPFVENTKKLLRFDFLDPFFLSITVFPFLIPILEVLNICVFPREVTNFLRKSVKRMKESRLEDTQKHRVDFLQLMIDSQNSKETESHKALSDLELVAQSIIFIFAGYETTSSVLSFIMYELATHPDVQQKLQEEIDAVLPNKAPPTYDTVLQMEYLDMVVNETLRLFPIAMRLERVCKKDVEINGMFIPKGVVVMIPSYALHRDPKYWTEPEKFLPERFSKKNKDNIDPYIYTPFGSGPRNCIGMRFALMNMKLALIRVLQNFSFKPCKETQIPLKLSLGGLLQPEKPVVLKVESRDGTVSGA
# Sequence of Cytochrome P450 2D6 (P10635 whole entry): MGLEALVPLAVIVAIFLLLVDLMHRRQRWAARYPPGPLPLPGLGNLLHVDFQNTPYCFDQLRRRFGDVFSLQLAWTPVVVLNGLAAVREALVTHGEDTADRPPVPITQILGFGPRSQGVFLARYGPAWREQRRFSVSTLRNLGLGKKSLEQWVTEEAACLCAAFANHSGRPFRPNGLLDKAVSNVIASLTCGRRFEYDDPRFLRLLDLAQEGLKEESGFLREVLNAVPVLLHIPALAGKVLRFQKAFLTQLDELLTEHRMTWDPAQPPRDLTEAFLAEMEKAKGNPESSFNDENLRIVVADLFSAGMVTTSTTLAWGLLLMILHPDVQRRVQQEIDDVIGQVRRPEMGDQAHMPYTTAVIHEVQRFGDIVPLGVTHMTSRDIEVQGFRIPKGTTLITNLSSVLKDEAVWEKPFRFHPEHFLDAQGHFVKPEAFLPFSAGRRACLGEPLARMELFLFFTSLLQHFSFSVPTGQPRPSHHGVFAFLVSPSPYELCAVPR
# Sequence of Cytochrome P450 2C9 (P11712 whole entry): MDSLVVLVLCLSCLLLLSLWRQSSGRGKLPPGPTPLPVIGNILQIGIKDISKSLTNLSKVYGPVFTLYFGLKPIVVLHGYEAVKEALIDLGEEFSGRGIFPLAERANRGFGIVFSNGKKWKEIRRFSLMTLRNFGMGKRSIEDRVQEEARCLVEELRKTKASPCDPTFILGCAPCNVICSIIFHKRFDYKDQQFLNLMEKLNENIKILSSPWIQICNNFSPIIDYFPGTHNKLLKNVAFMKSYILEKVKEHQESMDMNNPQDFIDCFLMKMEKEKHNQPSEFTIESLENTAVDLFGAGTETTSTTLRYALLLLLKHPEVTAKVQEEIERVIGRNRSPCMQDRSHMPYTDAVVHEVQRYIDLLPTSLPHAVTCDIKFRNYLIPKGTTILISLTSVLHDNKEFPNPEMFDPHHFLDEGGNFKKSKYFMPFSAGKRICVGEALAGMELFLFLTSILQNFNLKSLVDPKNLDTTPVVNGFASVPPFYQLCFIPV
# Sequence of Cytochrome P450 2C19 (P33261 whole entry): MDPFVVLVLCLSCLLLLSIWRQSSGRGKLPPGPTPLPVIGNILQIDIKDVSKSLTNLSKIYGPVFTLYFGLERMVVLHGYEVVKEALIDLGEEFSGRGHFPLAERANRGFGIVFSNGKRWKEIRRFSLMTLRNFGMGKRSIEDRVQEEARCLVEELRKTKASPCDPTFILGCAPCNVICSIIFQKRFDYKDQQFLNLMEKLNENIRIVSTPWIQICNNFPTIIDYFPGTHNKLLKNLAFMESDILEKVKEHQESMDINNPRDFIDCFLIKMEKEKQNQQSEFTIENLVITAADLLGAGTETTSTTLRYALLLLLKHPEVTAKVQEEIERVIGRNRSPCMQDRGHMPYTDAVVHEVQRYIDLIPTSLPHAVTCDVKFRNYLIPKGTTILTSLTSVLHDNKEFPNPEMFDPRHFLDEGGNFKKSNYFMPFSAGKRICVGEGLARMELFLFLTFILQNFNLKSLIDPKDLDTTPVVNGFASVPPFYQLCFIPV
compound,measurement,setting,value
CCC1(C)Cc2c(sc3nc(NN)n(C)c(=O)c23)CO1 (stereo unspecified),IC50,H9c2,> 79 µM (inactive)
O=C(c1cc(C(F)(F)F)cc(C(F)(F)F)c1)N1CCC2(CC1)CN(c1ccccn1)C2,AC50,Cytochrome P450 2D6,12.6 µM (inconclusive)
COc1cccc(Nc2c([N+](=O)[O-])cncc2[N+](=O)[O-])c1,EC50,Protein RecA,8.86 µM (active)
same,AC50,[1],12.9 µM (active)
Cc1ccc(C(=O)NC(=S)NNS(=O)(=O)c2ccccc2)cc1,IC50,[2],> 66 µM (inactive)
same,IC50,[3],> 66 µM (inactive)
Cc1ccccc1-c1nc(C[S+]([O-])CC(=O)N2CCC3(CC2)OCCO3)c(C)o1 (stereo unspecified),AC50,Cytochrome P450 2D6,25.1 µM (inconclusive)
same,AC50,Cytochrome P450 1A2,25.1 µM (inconclusive)
Cc1ccc(NC(=O)CSc2ncnc3ccccc23)cc1S(=O)(=O)N1CCCCCC1,EC50,Protein RecA,2.66 µM (active)
same,AC50,[1],20.1 µM (active)
CN(Cc1ccco1)c1ncncc1-c1ccoc1,AC50,Cytochrome P450 2D6,39.8 µM (inconclusive)
same,AC50,Cytochrome P450 3A4,3.16 µM (inconclusive)
same,AC50,Cytochrome P450 2C19,39.8 µM (inconclusive)
COC(=O)c1c(C)oc2ccc(N(C(=O)c3ccncc3)S(=O)(=O)c3ccccc3)cc12,AC50,Cytochrome P450 2D6,0.0355 µM (inconclusive)
O=[N+]([O-])/C=C\c1cc2ccccc2[nH]1,AC50,Cytochrome P450 2D6,5.01 µM (inconclusive)
same,AC50,Cytochrome P450 2C19,5.01 µM (inconclusive)
COc1ccc(CCN(C)Cc2ccc(OCc3ccccc3)c(OC)c2)cc1OC,AC50,Cytochrome P450 2C9,15.8 µM (inconclusive)
same,AC50,Cytochrome P450 2D6,14.1 µM (inconclusive)
same,AC50,Cytochrome P450 1A2,39.8 µM (inconclusive)
Nc1nc(NCCc2ccc(O)cc2)nc2nc(-c3ccco3)nn12 [ZM-241385],AC50,Cytochrome P450 2C9,39.8 µM (inconclusive)
same,AC50,Cytochrome P450 2D6,10 µM (inconclusive)
same,AC50,Cytochrome P450 1A2,31.6 µM (inconclusive)
Cn1cccc1C(=O)N1CCC2(CCCN(c3ccccn3)C2)CC1,AC50,Cytochrome P450 2C9,25.1 µM (inconclusive)
same,AC50,Cytochrome P450 2D6,25.1 µM (inconclusive)
same,AC50,Cytochrome P450 1A2,20 µM (inconclusive)
same,AC50,Cytochrome P450 3A4,20 µM (inconclusive)
Cc1ccc(C(=O)NC(=S)Nc2cccc(-c3nc4ccccc4s3)c2)cc1,IC50,[2],> 66 µM (inactive)
same,IC50,[3],> 66 µM (inactive)
O=C(NC(=S)Nc1cccc(O)c1)c1cncc(Br)c1,IC50,[2],> 66 µM (inactive)
same,IC50,[3],> 66 µM (inactive)
CCN(CC(=O)NCc1ccc(Cl)cc1)C(=O)CNS(=O)(=O)c1ccc(NC(C)=O)cc1,IC50,[2],> 66 µM (inactive)
same,IC50,[3],> 66 µM (inactive)
O=C(CSc1ncnc2c1nnn2Cc1ccc(F)cc1)NCC1CCCO1 (stereo unspecified),EC50,Protein RecA,10.2 µM (active)
same,AC50,[1],14.3 µM (active)
CC(N=C(S)Nc1ccccc1C(F)(F)F)C1CC2CCC1C2 (stereo unspecified),IC50,[2],> 66 µM (inactive)
same,IC50,[3],> 66 µM (inactive)
CCS(=O)(=O)C1=NN2C(=N)/C(=C\c3ccc(OC(=O)c4ccco4)cc3)C(=O)N=C2S1,EC50,Protein RecA,19.4 µM (active)
same,AC50,[1],> 380 µM (inactive)
CN(C)c1ncc2nc(CCc3ccccc3)c(=O)n(Cc3ccc(F)cc3)c2n1,AC50,Cytochrome P450 2D6,25.1 µM (inconclusive)
same,AC50,Cytochrome P450 3A4,3.98 µM (inconclusive)
CC1(C)CC2(C)OC(=N)C1(C#N)C2(C#N)C#N (stereo unspecified),EC50,Protein RecA,12.3 µM (active)
same,AC50,[1],70.3 µM (active)
O=Cc1c(N2CCN(CCO)CC2)nc2ccccn2c1=O,EC50,[4],> 53 µM (inactive)
same,IC50,[2],> 66 µM (inactive)
same,IC50,[3],> 66 µM (inactive)
CCOc1ccc(-n2c(C)nc3cc(C(=O)NCc4ccco4)ccc32)cc1,AC50,Cytochrome P450 2D6,11.2 µM (inconclusive)
same,AC50,Cytochrome P450 1A2,25.1 µM (inconclusive)
COc1cccc(N2CC(C(=O)Nc3nnc(SCC(=O)c4ccccc4)s3)CC2=O)c1 (stereo unspecified),EC50,Protein RecA,> 380 µM (inactive)
same,AC50,[1],181 µM (active)
CN(C1CCCCC1)S(=O)(=O)c1ccc(S)nc1,IC50,[2],> 66 µM (inactive)
same,IC50,[3],> 66 µM (inactive)
O=C(NC(=S)Nc1cccnc1)c1cccs1,IC50,[2],> 66 µM (inactive)
same,IC50,[3],> 66 µM (inactive)
CN(C)/C=N/c1ccc2nn(-c3ccccc3)nc2c1,AC50,Cytochrome P450 2C9,15.8 µM (inconclusive)
same,AC50,Cytochrome P450 2D6,25.1 µM (inconclusive)
O=C(N/N=C\c1ccc(-c2ccccc2[N+](=O)[O-])o1)C1COc2ccccc2O1 (stereo unspecified),EC50,Protein RecA,12.4 µM (active)
same,AC50,[1],7.94 µM (active)
Cc1noc(C)c1CSCC(=O)Oc1ccc(N(C)S(=O)(=O)c2ccccc2)cc1,EC50,Protein RecA,22.3 µM (active)
same,AC50,[1],4.1 µM (active)
COc1ccccc1CNc1cc(-c2ccccc2C)ncn1,AC50,Cytochrome P450 2D6,15.8 µM (inconclusive)
same,AC50,Cytochrome P450 3A4,31.6 µM (inconclusive)
Cc1cc(O)nc(SCn2nnc3ccccc3c2=O)n1,IC50,[2],> 66 µM (inactive)
same,IC50,[3],> 66 µM (inactive)
COc1ccc(CCC(C)Nc2cccc(F)c2)cc1 (stereo unspecified),AC50,Cytochrome P450 2D6,10 µM (inconclusive)
Cc1n[nH]c2c1C(c1cnn(C)c1)C(C#N)=C(N)O2 (stereo unspecified),EC50,Protein RecA,3.67 µM (active)
same,AC50,[1],14.2 µM (active)
